# According to patent US20120164731A1, “METHOD OF INDUCING DIFFERENTIATION FROM PLURIPOTENT STEM CELLS TO SKELETAL MUSCLE PROGENITOR CELLS” (KYOTO UNIVERSITY, priority 2009, published 2012):
# B1: bone morphogenetic protein 4 (protein, UniProt P12644 293-408, looked up)
# Bone morphogenetic protein 4: SPKHHSQRARKKNKNCRRHSLYVDFSDVGWNDWIVAPPGYQAFYCHGDCPFPLADHLNSTNHAIVQTLVNSVNSSIPKACCVPTELSAISMLYLDEYDKVVLKNYQEMVVEGCGCR
# notes: growth factor (Peprotech) added to the differentiation medium for the first 3 days
# B2: Activin A (protein, UniProt P08476 311-426, looked up)
# Inhibin beta A chain: GLECDGKVNICCKKQFFVSFKDIGWNDWIIAPSGYHANYCEGECPSHIAGTSGSSLSFHSTVINHYRMRGHSPFANLKSCCVPTKLRPMSMLYYDDGQNIIKKDIQNMIVEECGCS
# modifications: Inhibin beta A chain
# notes: as for B1
# Tests used:
# iPS-DsRed = experiment: Induction of differentiation from primitive streak mesodermal cells to skeletal muscle progenitor cells (SM/C-2.6 FACS, Myf5 RT-PCR); format: cell-based, mouse
# Experimental: (§1) Undifferentiated cells were detached from the dish as in the passage subculture, and twice washed with the differentiation induction basal medium. 10 ml of the culture medium for the first 3 days was added to a 10 cm cell culture dish coated with collagen type IV (Nitta Gelatin), and 500,000 undifferentiated iPS cells were seeded thereinto. The cells were cultured in an incubator adjusted to 37° C., 5% CO2, and 100% humidity for 3 days, after which the medium was replaced with the culture medium for the last 3 days. The cells were thus differentiation-induced for a total of 6 days, from which skeletal muscle progenitor cells were separated by the method of cell separation described below, and these were used in the subsequent experiments.
# (§2) The mouse iPS cells induced by the above-described differentiation induction method were divided into a population of skeletal muscle progenitor cells and a population of other cells using FACS Aria (Becton Dickinson). The cells were stained using antibodies as described previously [Sakurai, H. et al., Stem Cells 24, 575-586 (2006)]. Three different rat monoclonal antibodies were used: APA5 (anti-PDGFRα), ECCD2 (anti-ECD) and SM/C-2.6. The former two were supplied by Dr. Nishikawa [Sakurai, H. et al., Stem Cells 24, 575-586 (2006)], and the remaining one by Dr. Yamamoto [Fukada, S. et al., Exp Cell Res., 296, 245-255 (2004)]. The APA5 and SM/C-2.6 were conjugated with biotin (PIERCE) and fluorescently labeled using streptavidin-APC as a secondary antibody. The ECCD2 was directly conjugating with Alexa488 (Molecular Probes) by a conventional method and fluorescently labeled. The fluorescently labeled cells were suspended in Hanks' balanced salt solution (Invitrogen) supplemented with 1% bovine serum albumin to obtain a cell density of 5,000,000 cells per mL, fluorescence was examined and analyzed using FACS Aria, and the PDGFRα-positive fraction was separated and recovered.
# RNA was extracted from the recovered cells using Sepasol Reagent (Nacalai Tesque). cDNA was synthesized from the RNA using the SuperScriptll reverse transcription kit (Invitrogen). DNA was amplified by 25-35 cycles of PCR reaction using the ExTaq PCR reagent kit (Takara Bio) and the PTC200 thermal cycler (DNA engine), and analyzed by electrophoresis. The PCR primers shown below were used.
# To find a method for effectively inducing the differentiation, the present inventors investigated the potential of the Wnt signal inducer LiCl, used alone or in combination with other growth factors, for inducing the differentiation of iPS cells into skeletal muscle progenitor cells. Selected growth factor candidates, i.e., Sonic Hedgehog (Shh) and IGF-1, were added to the differentiation medium for the last 3 days, and their influences on differentiation into skeletal muscle progenitor cells were examined (FIG. 3A). The iPS cell used was iPS-DsRed. The degree of differentiation into skeletal muscle progenitor cells was analyzed with the expression of SM/C-2.6 as an index. Also analyzed was the expression of Myf5, which is a skeletal muscle-specific transcription factor in the RNA as a whole. SM/C-2.6 is a marker capable of specifically staining satellite cells, which are skeletal muscle stem cells [Fukada, S. et al., Exp Cell Res., 296, 245-255 (2004)], and has been reported to enable the separation of skeletal muscle progenitor cells from a mouse ES cell induction system [Chang, H. et al., Generation of transplantable, functional satellite-like cells from mouse embryonic stem cells. Faseb J., 23: 1907-1919 (2009)].
# First, the influence of the addition of Shh was determined. iPS-DsRed was induced to differentiate as illustrated in FIG. 3A. During the last 3 days, the cells were cultured in the presence of LiCl, alone or with the addition of Shh 20 ng/ml; the cells were induced to differentiate for a total of 6 days, stained with SM/C-2.6, and evaluated.
# iPS cells = experiment: Timing of LiCl addition, appearance efficiency of PDGFRα-positive fraction by FACS; format: cell-based, mouse; settings: continuous addition of LiCl from day 1 or day 2 from start of differentiation induction
# Experimental: A method of increasing the appearance efficiency of skeletal muscle progenitor cells derived from iPS cells was studied. Specifically, LiCl, which was added on day 3 from the start of the differentiation induction in the previous Examples, was added from a different day. Samples with addition of LiCl from day 0, 1, 2, 3 or 4 from the start of the differentiation induction were analyzed for the appearance efficiency of the PDGFRα-positive fraction by FACS analysis. As a result, not less than 60% of the induction efficiency could be reproduced by continuous addition of LiCl from day 1 or day 2 from the start of the differentiation induction (FIG. 8B). This method could also be reproduced with other iPS cell clone (iPS-Ng-20D-17).
# [1] = system: mouse iPS cells (iPS-Nanog-20D-17); experiment: Induction of differentiation from iPS cells to primitive streak mesodermal cells (PDGFRα FACS, viable cell count); format: cell-based; settings: for cell proliferation / survival: IGF-1 and/or HGF added or not
# Experimental: Differentiation of iPS cells was induced using a serum-free basal medium for differentiation induction prepared by adding 0.2% bovine serum albumin (Sigma), 100 μM 2-mercaptoethanol (Invitrogen), 50 mU/L penicillin and 50 μg/L streptomycin to S-Clone SF-03 (Sanko Junyaku Co., Ltd.). Various growth factors were added to the medium, and their effects were examined. Eventually, the following growth factors were used at the concentrations indicated.
# as §1, §2
# With this in mind, a first experiment was performed to determine whether the addition of growth factors other than BMP4 supports the survival of iPS cells and promotes their differentiation into primitive streak mesodermal cells (hereinafter sometimes simply referred to as “mesoderm”). Activin A, IGF-1, and HGF were examined as growth factor candidates (FIG. 1A, italicized). With Activin A added to all culture conditions examined, 4 conditions were analyzed: “neither IGF-1 nor HGF was added”, “IGF-1 was added alone”, “HGF was added alone”, and “both were added”. The iPS cell used was iPS-Nanog-20D-17. […] However, the viable cell count was about 3 times higher in the IGF-1-alone addition group than in the IGF-1-HGF-concurrent addition group (FIG. 1B, right).
# The influences of the concentrations of BMP4 and Activin A in the induction of differentiation from iPS cells to primitive streak mesodermal cells were examined. Specifically, of the addition conditions of Activin A 10 ng/ml, BMP4 10 ng/ml, and IGF-1 10 ng/ml determined in the previous section, the concentration of Activin A alone (FIG. 2A) or BMP4 alone (FIG. 2B) was changed, and the expression of PDGFRα was evaluated by FACS.
# [2] = Shh experiment, LiCl alone or with Shh during last 3 days
# [3] = induction of skeletal muscle progenitor cells, last 3 days
# [4] = IGF-1 experiment, IGF-1-free or IGF-1 added, irrespective of concentration
# [5] = iPS-Nanog-20D-17, Activin A added to all conditions
molecule,measurement,setting,value
sonic hedgehog [Shh],percentage of SM/C-2.6-positive cells,"iPS-DsRed; Shh 20 ng/ml addition group, with LiCl, last 3 days, total 6 days",38.8%
same,expression of Myf5 (RT-PCR),iPS-DsRed; [2],Myf5 was expressed
same,optimal concentration,iPS-DsRed; [3],about 20 ng/ml
"[Cl-].[Li+] [LiCl, lithium chloride, reference compound]",percentage of SM/C-2.6-positive cells,"iPS-DsRed; IGF-1-free group, last 3 days",11.9%
same,expression of Myf5 (RT-PCR),iPS-DsRed; [4],no expression of Myf5 was observed
same,expression of Myf5 (RT-PCR),iPS-DsRed; [2],not observed at all
same,percentage of SM/C-2.6-positive cells,"iPS-DsRed; Shh-free group: LiCl alone during last 3 days, total 6 days",28.5%
same,induction efficiency (PDGFRα-positive fraction),iPS cells,not less than 60%
HGF: growth factor candidate examined with Activin A and IGF-1,cell proliferation / survival,[1]; [5],little cells surviving
insulin-like growth factor-1 [IGF-1],"differentiation rate (mesoderm differentiation, expression of PDGFRα as an index)","[1]; iPS-Nanog-20D-17, Activin A added to all conditions, with BMP4, starting 3 days",61.5%
same,cell proliferation / survival,[1]; [5],Cell proliferation was observed
same,"viable cell count, IGF-1-alone addition group versus IGF-1-HGF-concurrent addition group","[1]; iPS-Nanog-20D-17, with Activin A",about 3 times
same,percentage of SM/C-2.6-positive cells,"iPS-DsRed; IGF-1 5 ng/ml addition group, last 3 days",16.8%
same,expression of Myf5 (RT-PCR),iPS-DsRed; [4],the expression of Myf5 was evident
same,effective concentration,iPS-DsRed; [3],≥ 5 ng/mL
B1,viable cell count when BMP4 concentration decreased,"[1]; Activin A 10 ng/ml, IGF-1 10 ng/ml",remained nearly constant
same,percentage of PDGFRα-positive cells,"[1]; BMP4 10 ng/ml, Activin A 10 ng/ml, IGF-1 10 ng/ml",44.7%
same,percentage of PDGFRα-positive cells,"[1]; BMP4 at all concentrations of 5 ng/ml or less, Activin A 10 ng/ml, IGF-1 10 ng/ml",25-28%
B2,percentage of PDGFRα-positive cells induced,"[1]; Activin A at 5 ng/ml or more, BMP4 10 ng/ml, IGF-1 10 ng/ml",exceeded 40%
same,viable cell count for Activin A 0 ng/ml compared with 10 ng/ml,"[1]; BMP4 10 ng/ml, IGF-1 10 ng/ml",about one-sixth level
same,concentrations at which more effective,[1]; based on PDGFRα-positive percentage and viable cell count,5 to 10 ng/mL
same,cell proliferation / survival,[1]; [5],some cells survived
